Data set [1] can be described thus: TEAC method (Trolox Equivalent Antioxidant Capacity Assay). The following applies: ratio of gradient to gradient of reference (trolox); 37 °C, 650 nm, pH 4.5. An excerpt:
This assay is used to measure the total antioxidant activity of pure substances, biological fluids and plant compounds and is based on the reaction of antioxidants with the cation radical ABTS^˙+ (2,2'-azinobis(3-ethylbenzothiazolin-6-sulphonate)). This cation radical is metastable and has to be generated just before the experiment by reacting ABTS with hydrogen peroxide in the presence of HRP.
This radical can be reduced, with consequent loss of absorbance, by an antioxidant whose scavenging capacity can be measured spectrophotometrically at 650 nm. The test is carried out at 37 °C and the results are obtained from a comparison with Trolox (a synthetic antioxidant and hydrophilic analogue of vitamin E).
The ABTS solution S1 was prepared as follows: • 20 mg of ABTS were added to 50 mM of citric acid buffer (40 ml) at pH=4.5 and to the resulting solution there was added an aqueous solution of HRP (4.4 mg, 400 µl) and an aqueous solution of H2O2 (10 µl of a 30% solution diluted with 16.3 ml of water).
For each of the compounds (2), (6) and (7), as synthesized above, there was prepared a 600 µM solution in water, methanol or DMSO according to its solubility, as well as a Trolox solution as reference.
Each solution was diluted to produce 6 solutions each at a concentration between 25 µM and 300 µM. From each of the diluted and divided solutions, there were withdrawn 20 µl to which 200 µl of solution S1 were then added.
The decrease in absorbance of each solution thus obtained was monitored at 650 nm until a stable value was reached (about 90 minutes).
For each set of 6 solutions and for the reference trolox solution, the absorption was given in graph form as a function of the amount of compound (nmol) in the solution. The gradient of the straight line obtained by linear interpolation was determined according to the least squares method. The TEAC value of each compound of the invention is given in the table below and is expressed as the ratio between the gradient of the resulting straight line and the gradient of the reference (trolox) straight line.

In data set [2] the test system is cerebral oxidative stress induced in mice by doxorubicin. Nature of the data set: In vivo assay of cerebral oxidative stress induced in mice by doxorubicin. The following applies: for Brain/BWi / CAT/pr / GPX/pr / GSH/pr / GST/pr / Prot. Hmg / Prot. Ox/pr / SOD/pr: % variation relative to the vehicle, 50 mg/kg IP x3 days (D = doxorubicin alone); for Brain/BWi / CAT/pr / GPX/pr / GSH/pr / GST/pr / Prot. Hmg / Prot. Ox/pr / SOD/pr / Mean % variation relative to the vehicle: healthy animals; for Mean % variation relative to the vehicle: 50 mg/kg IP days 0, 1 and 2, mean over all parameters, approximate safety index (D = doxorubicin alone). The protocol: The assay was carried out on compounds (1) and (3)-(6) and on edaravone (E) as comparative compound.
10 mice were used for each treatment group. For each compound 50 mg/kg were administered intraperitoneally (IP) for three consecutive days (day 0, 1 and 2); half the animals (5) also received IP 16.7 mg/kg of doxorubicin immediately after the first treatment (day 0). On the day after the last administration (day 3) the animals were killed by neck dislocation and the brains were removed, weighed and frozen in liquid nitrogen.
For the analyses of oxidative stress, 100 mg/ml of brain homogenate was prepared in Hebe buffer (pH 7.4 EDTA/HEPES^(**)) containing a mixture of enzyme inhibitors (Leupeptin, Pepstatin, Aprotinin, BHA). • ^(*) Hypotonic Extraction Buffer • ^(**) 4-2-hydroxyethyl-1-piperazinyl-ethanesulphonic acid
The evaluation parameters were: • BrW/BWi: ratio between final brain weight and initial body weight (day 0); • Prot. Hmg: total proteins in the homogenate (BCA method, i.e. bicinchoninic acid); • Prot. Ox: oxidized proteins in the Hmg by means of a colorimetric method using […] (DNPH); • GSH: reduced glutathione in the supernatant (sn) of the Hmg, obtained after precipitation with metaphosphoric acid (MPA), by means of a colorimetric method using […] (DTNB); • CAT: catalase in the Hmg by a colorimetric method using potassium dichromate; • SOD: superoxide dismutase by a colorimetric method using SOD Reagent (xanthine, EDTA, nitroblue tetrazole, Na2CO3, BSA, i.e. bovine serum albumin); • GST: glutathione S-transferase in the supernatant by a colorimetric method using chlorodinitrobenzene (CDNB) and GSH; and • GPx: glutathione peroxidase in the supernatant after addition of GSH and tert butyl hydroperoxide (t-BuOOH), heating and precipitation with MPA; followed by GSH method with DTNB.
All the parameters, with the exclusion of Brain/BWi and Prot. Hmg, were normalized for total Hmg proteins (Table 3). The D value standard deviations and the % incidence relative to V are given in italics.
The mean % effect, on all the parameters simultaneously, of the triple treatment in the healthy animals, as mean percentage variation relative to the vehicle (table 4). This value is useful as an approximate safety index of the oxidative state of the brain, i.e. the capacity of the compounds of the invention not to alter cerebral homeostasis in healthy animals.
The effect of the tested compounds on the "oxidized" animals was given as % inhibition relative to the percentage variation due to doxorubicin alone. The effect of the compounds on the oxidized animals can be expressed both as a function of the values of the vehicle (healthy, vehicle only) and as a function of the value of its own control (healthy, compound only): • Vehicle: percentage [(Compound+D)/V]x100/[(V+D)/V]x100 • Its own: percentage [(Compound+D)/Compound]x100/[(V+D)/V]x100

The conditions of data set [3]: mouse, in vivo. As to the method: The ability of the compounds of the invention to penetrate the brain was investigated by measuring their brain/plasma (B/P) concentration ratio in mice following intraperitoneal administration.
Female CD-1 mice were used (n=3 for each time period) and received the compounds of the invention by intraperitoneal administration, in 25 mg/kg doses in a 0.5% NaHCO3 buffer (pH 8.3). At predefined intervals following said administration, i.e. 5, 15, 30 and 60 minutes, the mice were killed and both plasma and total brain tissue were collected.
Specifically, after anaesthesia with ether, the animals were bled by blood withdrawal from the abdominal aorta then immediately decapitated. The blood samples were collected into plasma separator tubes containing Li-Heparin as anticoagulant and centrifuged. The resulting plasma was then stored at -20 °C. The brain was rapidly removed from the cranium and weighed, subsequently frozen and stored at -20 °C before treatment by homogenization and HPLC analysis.
The plasma was thawed and mixed with an equal volume of the extraction solution. This extraction solution was a mixture of aqueous and organic solvents whose composition had been previously determined by HPLC undertaken for each analyte.
1 ml of solution was then extracted by adding 20 µl of 70% HClO4 then centrifuged at 15,500g for 5 minutes and injected into the HPLC.
Each brain was thawed and homogenized with the extraction solution to provide a final composition of 4 ml/1g of tissue by means of an Ultra-Turrax blender and sonicated for 5 minutes. After centrifugation of the homogenate at 15,500g for 5 minutes, the resulting solution was treated with HClO4, as indicated for the plasma.
Specific chromatographic conditions had been developed for each analyte, the calibration curve being constructed for plasma and brain homogenate.

Data set [4] can be described thus: Acute toxicity study, intraperitoneal single dose (OECD guideline no. 420). In kind it is in vivo. To be noted: result in words, with reference to Example 13. The protocol:
This study was carried out with the purpose of investigating the toxicity of a single dose of the listed compounds administered to ICR (CD-1) female mice. According to the current OECD guideline no.
The mice used were all female and were treated by intraperitoneal injection administration. The animals were observed individually and regularly for the first 4 hours and within 24 hours after administration, and then twice a day for the whole observation period. As soon as the animals were stabilized, observations at the weekend were undertaken once only during the day.
The evaluated parameters included the survival, body weight development, variations in skin and fur, changes in ocular, conjunctival and buccal mucous membranes, changes in activities of the respiratory, circulatory, autonomous and central nervous systems, changes in somatomotor activity and in behaviour.
Any appearance of tremors, convulsions, salivation, diarrhea, lethargy, drowsiness and coma were attentively and regularly monitored. At the end of the observation period, a post-mortem was carried out on all the animals.

Data set [5] is described as follows: pH at the semi-neutralization point of titration (pKa). In kind it is physicochemical. To be noted: titration with 0.1 N NaOH or HCl; for pKa: read-out: Acid dissociation constant: pKa. As to the method:
The following equipment was used during the implementation of all the examples: • for melting point determination a Buchi B-540 instrument was used; • for pH determination at the semi-neutralization point of titration (pKa) a Mettler Toledo DL-50 instrument was used with a 0.1 N xNaOH or HCl solution; • the ^1H-NMR spectra were recorded at 300 MHz and the ^13C-NMR spectra were recorded at 75 MHz using a Varian Unity 300 instrument; • spectrophotometric measurements were carried out using a Lambda Perkin Elmer 15 UV/Vis spectrophotometer for the DPPH assay and a Wallac Victor 1420 multilabel counter spectrophotometer.

[6] abbreviates: % inhibition relative to variation due to doxorubicin alone, oxidized animals, as function of its own control.
Setting [7] is: % inhibition relative to variation due to doxorubicin alone, oxidized animals, as function of vehicle.

Consider `O=C1C=C(NN2CCCCC2)CC(c2ccccc2)C1` (stereo not drawn) [(2), 5-phenyl-3-(piperidin-1-ylamino)cyclohex-2-enone], for which the TEAC in data set [1] was 1.67.
For the compound `CC1(C)CC(=O)C=C(N(O)Cc2cccnc2)C1` [(4), 3-(hydroxy(pyridin-3-ylmethyl)amino)-5,5-dimethylcyclohex-2-enone], in data set [2] (setting [6]), the Brain/BWi its own was 56.5%, the CAT/pr its own is -43.2%, the GPX/pr its own is reported as -6.1% and the GSH/pr its own was found to be 35.2%. In data set [2] (setting [6]), the GST/pr its own is -34.1%, the “Prot. Hmg its own” value is reported as -38.6%, the “Prot. Ox/pr its own” value came out at 57.6% and the SOD/pr its own was found to be 73.4%. In data set [2] (setting [7]), the Brain/BWi vehicle is reported as 79.7%, the CAT/pr vehicle worked out at 9.1%, the GPX/pr vehicle was -8.1% and the GSH/pr vehicle was found to be 39.2%. Also, in data set [2] (setting [7]), the GST/pr vehicle was -45.1%, the “Prot. Hmg vehicle” value stood at 1.2%, the “Prot. Ox/pr vehicle” value was -106.4% and the SOD/pr vehicle was 73.4%. For the same compound, in data set [2], the Brain/BWi was -0.1%, the CAT/pr was -9.3%, the GPX/pr is listed as 0.1% and the GSH/pr is -0.2%. For the same compound, in data set [2], the GST/pr amounted to 0.5%, the “Prot. Hmg” value is 1.2%, the “Prot. Ox/pr” value is -10.3% and the SOD/pr is listed as 0.0%. For the same compound, in data set [2], the “Mean % variation relative to the vehicle” value was 0.0%. The “bioavailability at the target site / crossing of the blood-brain barrier” value in data set [3] was “particularly bioavailable, as well as able to cross the blood-brain barrier in effective amounts”. Besides, in data set [4], the “toxicity evaluation in vivo (tolerability)” value (“toxicity evaluation in vivo” below) is recorded as “well tolerated”. For the same compound, in data set [5], the “Acid dissociation constants: pKa1” value is 2.70 and the “Acid dissociation constants: pKa2” value is on record as 6.47.
Turning to `CC1(C)CC(=O)C=C(N(O)Cc2ccccn2)C1` [(5), 3-(hydroxy(pyridin-2-ylmethyl)amino)-5,5-dimethylcyclohex-2-enone], in data set [2], the Brain/BWi was -3.3%, the CAT/pr is listed as -6.2%, the GPX/pr was 1.5% and the GSH/pr is on record as -0.9%. In data set [2], the GST/pr amounted to 3.1%, the “Prot. Hmg” value is on record as 0.7%, the “Prot. Ox/pr” value is -5.5% and the SOD/pr is given as -2.3%. For the same compound, the “Mean % variation relative to the vehicle” value in data set [2] is -0.4%. Further, the “bioavailability at the target site / crossing of the blood-brain barrier” value in data set [3] is given as “particularly bioavailable, as well as able to cross the blood-brain barrier in effective amounts”. Further, the “toxicity evaluation in vivo” value in data set [4] is on record as “well tolerated”. In addition, the pKa (as a rule, the pH at which an ionisable group is half protonated) in data set [5] turned out to be 4.2.
Turning to `CC1(C)CC(=O)C=C(NN2CCOCC2)C1` [(7), 5,5-dimethyl-3-(morpholinoamino)cyclohex-2-enone], in data set [1], the TEAC turned out to be 0.8. Further, the “bioavailability at the target site / crossing of the blood-brain barrier” value in data set [3] is listed as “particularly bioavailable, as well as able to cross the blood-brain barrier in effective amounts”. Besides, the “toxicity evaluation in vivo” value in data set [4] is recorded as “well tolerated”. Besides, the pKa in data set [5] came to 2.94.
In the case of `COc1cccc2c1C(=O)c1c(O)c3c(c(O)c1C2=O)C[C@@](O)(C(=O)CO)C[C@@H]3O[C@H]1C[C@H](N)[C@H](O)[C@H](C)O1` [D, doxorubicin, reference compound], in data set [2], the CAT/pr is -13.2%, the GPX/pr was -9.9%, the GSH/pr was -12.5% and the GST/pr is given as -9.1%. In data set [2], the “Prot. Hmg” value is listed as 8.3%, the “Prot. Ox/pr” value stood at 17.2%, the SOD/pr is reported as -14.3% and the “Mean % variation relative to the vehicle” value is -11.4%. Besides, in data set [2] (50 mg/kg), the Brain/BWi is -6.9%. Moreover, the Brain/BWi in data set [2] (listed as Doxo, 50 mg/kg) turned out to be 6.9%.
With `O=C1O[C@H]([C@@H](O)CO)C(O)=C1O` [vitamin C, reference compound], the TEAC in data set [1] is recorded as 0.9.

(Values after EP2371816A1, “Aminocyclohexenone, their preparation and use as medicament against oxidative stress” (ABIOGEN PHARMA S.p.A., priority 2010, dated 2011).)
